Measured values: the supplement of paper PMC10883282
Structures can show the parent of a compound that is named as a salt. ± gives the standard deviation of the averaged measurements.

Tested on: SYO-1
Assay: relative viability vs DMSO control (72 h) (fraction); higher = more viable cells
Method in brief: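 After seeding at densities set for 80–90% confluence in 384-well plates, sarcoma cell lines waited 24 h before 2.5 µl of serially diluted compound was added. Source plates held 10 mM down to 0.0002 mM. Plates were incubated 72 h at 37 °C with 5% CO2, with 0.1% DMSO vehicle and a 5 µM positive control, and relative viability was taken from ATPLite as percent growth averaged over up to triplicate wells, with 1 set as full and 0 as none.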

SMILES | relative viability (0.00017 µM) | relative viability (0.00051 µM) | relative viability (0.00152 µM) | relative viability (0.00457 µM) | relative viability (0.01372 µM) | relative viability (0.04115 µM) | relative viability (0.1235 µM) | relative viability (0.3704 µM) | relative viability (1.111 µM) | relative viability (3.333 µM) | relative viability (10 µM)
CC[C@H](Nc1ncnc2[nH]cnc12)c1nc2cccc(F)c2c(=O)n1-c1ccccc1 [Idelalisib] | 1.01 ± 0.062 | 0.979 ± 0.029 | 1 ± 0.054 | 0.968 ± 0.068 | 0.972 ± 0.069 | 0.942 ± 0.028 | 0.941 ± 0.032 | 0.931 ± 0.068 | 0.911 ± 0.045 | 0.866 ± 0.067 | 0.799 ± 0.079
COc1cccc2c1C(=O)c1c(O)c3c(c(O)c1C2=O)C[C@@](O)(C(=O)CO)C[C@@H]3O[C@H]1C[C@H](N)[C@H](O)[C@H](C)O1 [Doxorubicin Hydrochloride] | 0.967 ± 0.064 | 0.938 ± 0.048 | 0.899 ± 0.054 | 0.818 ± 0.06 | 0.549 ± 0.038 | 0.29 ± 0.025 | 0.175 ± 0.035 | 0.127 ± 0.015 | 0.0941 ± 0.01 | 0.0937 ± 0.025 | 0.0765 ± 0.011
Cc1ccc(NC(=O)c2ccc(CN3CCN(C)CC3)cc2)cc1Nc1nc(-c2cccnc2)cs1 [Masitinib] | 1.04 ± 0.023 | 1.02 ± 0.02 | 1.01 ± 0.027 | 1.01 ± 0.026 | 0.974 ± 0.026 | 0.916 ± 0.039 | 0.801 ± 0.021 | 0.676 ± 0.032 | 0.553 ± 0.038 | 0.242 ± 0.033 | -0.0235 ± 0.0061
Cn1cnc2c(F)c(Nc3ccc(Br)cc3F)c(C(=O)NOCCO)cc21 [Binimetinib] | 1.04 ± 0.027 | 1.05 ± 0.02 | 1.01 ± 0.064 | 1.01 ± 0.038 | 0.983 ± 0.024 | 0.96 ± 0.042 | 0.936 ± 0.038 | 0.933 ± 0.019 | 0.93 ± 0.069 | 0.889 ± 0.042 | 0.86 ± 0.059
CC(=O)Nc1cccc(-n2c(=O)n(C3CC3)c(=O)c3c(Nc4ccc(I)cc4F)n(C)c(=O)c(C)c32)c1 [Trametinib] | 0.997 ± 0.025 | 0.983 ± 0.057 | 0.925 ± 0.031 | 0.889 ± 0.034 | 0.865 ± 0.027 | 0.832 ± 0.056 | 0.765 ± 0.05 | 0.735 ± 0.038 | 0.687 ± 0.061 | 0.687 ± 0.037 | 0.671 ± 0.048
Cc1cc(Nc2ncnc3ccc(NC4=NC(C)(C)CO4)cc23)ccc1Oc1ccn2ncnc2c1 [Tucatinib] | 1.03 ± 0.024 | 1.04 ± 0.026 | 1.02 ± 0.015 | 1.01 ± 0.021 | 0.99 ± 0.027 | 0.981 ± 0.038 | 1.01 ± 0.022 | 0.97 ± 0.064 | 0.969 ± 0.019 | 0.959 ± 0.027 | 0.841 ± 0.041
CCN1CCN(Cc2ccc(Nc3ncc(F)c(-c4cc(F)c5nc(C)n(C(C)C)c5c4)n3)nc2)CC1 [Abemaciclib] | 0.953 ± 0.047 | 0.936 ± 0.043 | 0.925 ± 0.029 | 0.905 ± 0.051 | 0.849 ± 0.059 | 0.775 ± 0.064 | 0.657 ± 0.051 | 0.519 ± 0.039 | 0.461 ± 0.015 | 0.353 ± 0.059 | 0.0228 ± 0.055
Cc1nc(-c2cn3c(n2)-c2ccc(-c4cnn(C(C)(C)C(N)=O)c4)cc2OCC3)n(C(C)C)n1 [Taselisib] | 0.9262 ± 0.0077 | 0.924 ± 0.029 | 0.924 ± 0.035 | 0.895 ± 0.051 | 0.864 ± 0.042 | 0.794 ± 0.053 | 0.759 ± 0.041 | 0.721 ± 0.046 | 0.684 ± 0.046 | 0.61 ± 0.034 | 0.476 ± 0.033
C[C@@H]1COCCN1c1cc(-c2ccnn2C)c2ccnc(-c3ccn[nH]3)c2n1 | 0.9163 ± 0.0052 | 0.928 ± 0.028 | 0.911 ± 0.043 | 0.903 ± 0.06 | 0.799 ± 0.07 | 0.627 ± 0.044 | 0.415 ± 0.03 | 0.286 ± 0.018 | 0.199 ± 0.0027 | 0.116 ± 0.0028 | 0.0976 ± 0.0066
CO[C@H]1C[C@@H]2CC[C@@H](C)[C@@](O)(O2)C(=O)C(=O)N2CCCC[C@H]2C(=O)O[C@H]([C@H](C)C[C@@H]2CC[C@@H](OP(C)(C)=O)[C@H](OC)C2)CC(=O)[C@H](C)/C=C(\C)[C@@H](O)[C@@H](OC)C(=O)[C@H](C)C[C@H](C)/C=C/C=C/C=C/1C [Ridaforolimus] | 0.941 ± 0.022 | 0.924 ± 0.024 | 0.915 ± 0.026 | 0.89 ± 0.037 | 0.868 ± 0.035 | 0.832 ± 0.041 | 0.79 ± 0.042 | 0.775 ± 0.038 | 0.748 ± 0.056 | 0.707 ± 0.058 | 0.672 ± 0.062
CCc1cc2c(cc1N1CCC(N3CCOCC3)CC1)C(C)(C)c1[nH]c3cc(C#N)ccc3c1C2=O [Alectinib] | 0.979 ± 0.024 | 0.983 ± 0.032 | 0.982 ± 0.058 | 0.975 ± 0.059 | 0.99 ± 0.072 | 0.98 ± 0.031 | 0.972 ± 0.081 | 0.986 ± 0.051 | 1 ± 0.05 | 0.984 ± 0.045 | 1.03 ± 0.034
COCc1c(-c2cc3cc(C)cc(OC)c3s2)c2c(N)ncnn2c1CN1CCNC(=O)C1 [Rogaratinib] | 1.01 ± 0.048 | 0.974 ± 0.054 | 0.952 ± 0.059 | 0.924 ± 0.067 | 0.84 ± 0.059 | 0.765 ± 0.082 | 0.634 ± 0.05 | 0.613 ± 0.071 | 0.6 ± 0.057 | 0.568 ± 0.056 | 0.464 ± 0.06
C[C@@H]1CCN(C(=O)CC#N)C[C@@H]1N(C)c1ncnc2[nH]ccc12 [Tofacitinib] | 1.01 ± 0.051 | 0.969 ± 0.061 | 0.966 ± 0.072 | 0.923 ± 0.024 | 0.887 ± 0.039 | 0.902 ± 0.062 | 0.916 ± 0.043 | 0.888 ± 0.02 | 0.891 ± 0.053 | 0.868 ± 0.032 | 0.766 ± 0.044
O=C(Cc1ccc(-c2ccc(OCCN3CCOCC3)cc2)cn1)NCc1ccccc1 [KX2-391] | 1 ± 0.039 | 0.973 ± 0.038 | 0.958 ± 0.017 | 0.952 ± 0.042 | 0.917 ± 0.034 | 0.673 ± 0.027 | 0.295 ± 0.013 | 0.309 ± 0.011 | 0.324 ± 0.015 | 0.324 ± 0.011 | 0.357 ± 0.011
C[C@@H](c1ccc2nccn2c1)n1nnc2ncc(-c3cnn(C)c3)nc21 [Volitinib] | 0.96 ± 0.038 | 0.999 ± 0.065 | 1 ± 0.025 | 0.979 ± 0.03 | 0.985 ± 0.024 | 0.992 ± 0.032 | 1.01 ± 0.087 | 0.98 ± 0.051 | 0.996 ± 0.058 | 0.977 ± 0.085 | 1.03 ± 0.047
C[C@]1(O)C[C@@H](c2nc(-c3ccc4ccc(-c5ccccc5)nc4c3)c3c(N)nccn32)C1 [Linsitinib] | 1.01 ± 0.043 | 1.01 ± 0.013 | 0.97 ± 0.046 | 0.969 ± 0.018 | 0.922 ± 0.035 | 0.87 ± 0.083 | 0.857 ± 0.035 | 0.823 ± 0.012 | 0.833 ± 0.04 | 0.734 ± 0.025 | 0.57 ± 0.028
COc1cc2c(Oc3ccc4[nH]c(C)cc4c3F)ncnc2cc1OCCCN1CCCC1 [Cediranib] | 0.965 ± 0.02 | 0.962 ± 0.039 | 0.967 ± 0.04 | 0.946 ± 0.043 | 0.91 ± 0.074 | 0.723 ± 0.036 | 0.5301 ± 0.0011 | 0.471 ± 0.019 | 0.453 ± 0.019 | 0.483 ± 0.012 | 0.482 ± 0.027
CC(C)(C)c1cc(NC(=O)Nc2ccc(-c3cn4c(n3)sc3cc(OCCN5CCOCC5)ccc34)cc2)no1 [Quizartinib] | 0.978 ± 0.017 | 0.963 ± 0.02 | 0.973 ± 0.044 | 0.943 ± 0.035 | 0.935 ± 0.034 | 0.9229 ± 0.0014 | 0.873 ± 0.015 | 0.715 ± 0.043 | 0.67 ± 0.046 | 0.646 ± 0.034 | 0.627 ± 0.044
COc1cc2/c(=N/c3ccc(Br)cc3F)nc[nH]c2cc1OCC1CCN(C)CC1 [Vandetanib] | 0.926 ± 0.02 | 0.924 ± 0.043 | 0.927 ± 0.028 | 0.899 ± 0.067 | 0.889 ± 0.041 | 0.848 ± 0.034 | 0.793 ± 0.011 | 0.65 ± 0.015 | 0.4003 ± 0.0022 | 0.0998 ± 0.016 | -0.00567 ± 0.0018
